Assay results as given in patent US20080241211A1, “DEVICE WHICH ENHANCES THE BIOLOGICAL ACTIVITY OF LOCALLY APPLIED GROWTH FACTORS WITH PARTICULAR EMPHASIS ON THOSE USED FOR BONE REPAIR” (University of Southern California, priority 2007, published 2008).
“Also recorded” adds a separate entry of the source.

How the values were obtained:
estrogen receptor = test: Naringin enhancement of BMP-2 effect with estrogen receptor antagonist ICI182,780 in C2C12; assay type: cell-based; settings: FIG. 5
Procedure: Intracellular distribution of the estrogen receptor in skeletal myoblasts (C2C12) was determined by immuno-fluorescent staining (Milanesi, L., et al., J Cell Biochem, 2008). Naringin bind to estrogen receptor. Inhibition of estrogen receptor abrogate naringin effect. […] However, the mechanism by which naringin exerts its effects is still unclear. From our prelimianry study, there is evidence that naringin acts via estrogen-receptor (ER)-mediated signaling. Cells were cultured with naringin, in combination with 7α,17β-[9[(4,4,5,5,5-pentafluoropentyl)sulfinyl]nonyl] estra-1,3,5(10)-triene-3,17-diol (ICI182,780), a non-specific ERα and ERβ antagonist.

MG-63 human osteoblasts = settings: via activation of the estrogen receptor; cited from earlier work
osteoblasts = settings: cited from earlier work
[1] = tested on: Pre-myoblast cell line C2C12; test: BMP-2 induced ALP activity in C2C12 cell culture; assay type: cell-based
Procedure: C2C12 was plated in 96-well culture plate with density of 12.5K/well in 10% FBS/DMEM for 5 hours attachment. […] Cells were incubated at 37° C. for another 48 hours. Cell membrane associated ALP activity was tested by standard ALP assay.
C2C12 was plated in 96-well culture plate with density of 12.5K/well in 10% FBS/DMEM for 5 hours attachment. Medium was changed into 1% testing medium. Forty nano-gram of rhBMP-2 in 10 μl was added in every well and 1-1600 nM of naringin was added 10 minutes later.

[2] = tested on: Rat bone marrow derived stem cells; test: MTT cell proliferation assay; assay type: cell-based; settings: 48 h, FIG. 6
Source text: MTT was used for cell proliferation assay. MTT [3-(4,5-dimethylthiazol-2-yl)-2,5-diphenyltetrazolium bromide] assay is based on the ability of a mitochondrial dehydrogenase enzyme from viable cells to cleave the tetrazolium rings of the pale yellow MTT and form a dark blue formazan crystals which is largely impermeable to cell membranes, thus resulting in its accumulation within healthy cells. Rat bone marrow derived stem cells were selected by pro-plating methods. Cells used in this study were from passages 3-4. 1×10^7 viable cells/mL in culture media containing 10% FCS were dispensed 100 μL per well in 96 well flat bottomed tissue culture plates. Cells were allow to grow with and without naringin and incubated plates in a humidified CO2 incubator at 37° C. for 48 h. 10 μL of MTT solution were added to all wells of 48 h cultured stem cells and incubate for 4 h at 37° C. After washing cells 3 times with PBS, dark blue dye in cells were dissolved with DMSO. After a few minutes at room temperature read plates using a plate reader in dual wavelength measuring system, at 540 nm and a reference wavelength of 630 nm.
Dose dependent of naringin on bone marrow stem cell proliferation was studied. Cell number was assayed by MTT method. […] (see FIG. 6).

[3] = Collagen sponge implants, subcutaneous or intramuscular bone induction in rats; assay type: in vivo, rat
Procedure: Collagen sponge was either blended with naringin solution or covalently crosslinked naringin to collagen sponges. Different doses of BMP-2 were added to the matrices before implantation. Samples were placed intramuscular in thigh muscle. Ten Fisher 344 rats with 180 g in weight were used in this study. Implants were be retrieved 28 days postoperatively. Explants were dissected free of muscle flaps and cut into halves. One half of each explant was used for alkaline phosphatase assay.
Based on these surprising discoveries, the inventors concluded that specific growth factors are needed in addition to naringin for bone to form (FIG. 3).
It will be recognized by one skilled in the art that osteoinductive enhancers are particularly useful in situations where fracture healing is compromised, such as in older people where biosynthetic abilities may be declining, or in situations where not sufficient bone is available for repair. It will also be understood by one of ordinary skill in the art that the addition of growth factors (natural or synthetic) to the naringin containing preparation is essential for osteoinduction.

[4] = DBM with naringin in abdominal muscle pouches of nude rats, ectopic bone formation; assay type: in vivo; settings: optimized dose of naringin
Procedure: Osteoinductive (OI) activity of human DBM obtained from Tissue Bank with particle size of 210-750 micrometers was tested in vitro with cell culture methods (Han, 2003). DBM were grouped according their OI score.
Two doses of naringin were used to treat DBM particles before implantation. In 50 mg of DBM, 50 micro liter of 100 micromolar or […] of naringin/PBS solution was added into DBM before implantation.
Muscle pouches were created in abdominal muscles bilaterally in nude rats (weighing 120-150 g each) at 6 sites by sharp and blunt dissection. Subsequently, fifty milligrams of three groups of DBM, two doses of naringin/PBS and with PBS alone, were packed into pouches and closed with a single absorbable suture. Implants were retrieved 28 days postoperatively. The recti abdomini muscles were excised as single muscle flaps and placed in cold PBS moisturized paper towels for radiography. Explants were dissected free of muscle flaps and cut into halves. One half of each explant were used for alkaline phosphatase assay and the other half were fixed in 10% neutral buffered formalin solution for 24 hours and decalcified with a decalcifying solution (Stephens Scientific, Riverdale, N.J.) for 48 hours. The decalcified explants were paraffin-embedded and sectioned with a […] microtome. […]

Q: With `C[C@]12CC[C@@H]3c4ccc(O)cc4C[C@@H](CCCCCCCCC[S+]([O-])CCCC(F)(F)C(F)(F)F)[C@H]3[C@@H]1CC[C@@H]2O` (stereo partly drawn) [ICI, 7α,17β-[9[(4,4,5,5,5-pentafluoropentyl)sulfinyl]nonyl] estra-1,3,5(10)-triene-3,17-diol] as the molecule, how does the “effect of estrogen receptor antagonist on naringin enhancing BMP-2 effect” value (estrogen receptor) read?
A: partially block naringin enhancing BMP-2 effect

Q: With `O=c1c(O)c(-c2ccc(O)cc2)oc2cc(O)cc(O)c12` [kaempferol] as the molecule, how does the “alkaline phosphatase activity in MG-63 human osteoblasts” value (MG-63 human osteoblasts) read?
A: induced an increase in alkaline phosphatase activity

Q: With `O=c1c(-c2ccc(O)cc2)coc2cc(O)ccc12` [daidzein] as the molecule, how does the “increase of viability of osteoblasts” value (osteoblasts; daidzein 2-50 microM, P<0.05) read?
A: about 1.4 fold

Q: What about the “increase of alkaline phosphatase activity of osteoblasts” value (osteoblasts; daidzein 2-100 microM, P<0.05) of the same molecule?
A: about 1.4 fold

Q: And the “increase of osteocalcin synthesis of osteoblasts” value (osteoblasts; daidzein 2-100 microM, P<0.05)?
A: ~2.0 fold

Q: What about the “BMP2 mRNA increase” value (osteoblasts; osteoblasts) of the same molecule?
A: 5.0 fold

Q: And the BMP2 protein increase (osteoblasts; osteoblasts)?
A: 7.0 fold

Q: Which results are given for `C[C@@H]1O[C@@H](O[C@H]2[C@H](Oc3cc(O)c4c(c3)O[C@H](c3ccc(O)cc3)CC4=O)O[C@H](CO)[C@@H](O)[C@@H]2O)[C@H](O)[C@H](O)[C@H]1O` [naringin]?
A: naringin concentration with maximal enhancing ALP effect ([1]; 40 ng rhBMP-2 per well, 1-1600 nM naringin added 10 minutes later, FIG. 4): 800 nM; increase of BMP-2 activity by naringin ([1]; BMP-2 plus naringin versus BMP-2 alone, FIG. 3): four-fold; BMP-2 activity in the ALP assay when naringin is added ([1]; BMP-2 plus naringin, FIG. 3): 0.4; induction of differentiation in osteoprogenitor cells by alkaline phosphatase activity ([1]; C2C12, preliminary results): significant induction of differentiation; effect of naringin on BMP-2 induced ALP activity ([1]; naringin added to BMP-2, C2C12, FIG. 3): increases the upregulation of alkaline phosphatase activity by BMP-2; also recorded: dose dependently increase BMP-2 induced ALP activity; effect of naringin by itself on ALP activity / osteoinductivity ([1]; naringin alone, no BMP-2, C2C12, 48 hours): not enough for osteogenic induction; also recorded: no effect on ALP activity; also recorded: no osteoinductivity at all; bone marrow stem cell proliferation (MTT) [2]: inhibits rat bone marrow cell proliferation; new bone induction ([3]; collagen sponges with naringin plus growth factors (BMP2 and/or BMP7), subcutaneous or intramuscular model): did induce bone; new bone induction ([3]; naringin alone with collagen carrier, no growth factors, rats): do not induce new bone; also recorded: not sufficient to induce bone; also recorded: no bone was formed; also recorded: no effect; DBM activity in regard of ectopic bone formation potential [4]: significantly increased

Q: Which “alkaline phosphatase activity in MG-63 human osteoblasts” value (MG-63 human osteoblasts) does the source give for `O=c1c(O)c(-c2ccc(O)c(O)c2)oc2cc(O)cc(O)c12` [quercetin] here?
A: induced an increase in alkaline phosphatase activity
